# Activity calls are given as the source filed them. No cut-off for these calls is given here.
# Key:
# [1] = system: DLD-1; assay: Antiproliferative activity against human DLD-1 deficient in BRCA-2 cells measured after 7 days; type: functional, cell-based; details: Homo sapiens, DLD-1, 168 h
# [2] = Aqueous solubility of the compound at pH 7.4; type: physicochemical; details: buffer
# [3] = Intrinsic clearance in human hepatocytes measured per million of cells; type: ADME, cell-based, Hepatocyte; details: read-out: CLH
# [4] = target: Protein mono-ADP-ribosyltransferase PARP3 (Homo sapiens) (UniProt Q9Y6F1); assay: Binding affinity to PARP3 (unknown origin) assessed as apparent dissociation constant
# [5] = target: Protein mono-ADP-ribosyltransferase PARP4 (Homo sapiens) (UniProt Q9UKK3); assay: Binding affinity to PARP4 (unknown origin) assessed as apparent dissociation constant
# Chain of Protein mono-ADP-ribosyltransferase PARP4 (Homo sapiens) (Q9UKK3 whole entry): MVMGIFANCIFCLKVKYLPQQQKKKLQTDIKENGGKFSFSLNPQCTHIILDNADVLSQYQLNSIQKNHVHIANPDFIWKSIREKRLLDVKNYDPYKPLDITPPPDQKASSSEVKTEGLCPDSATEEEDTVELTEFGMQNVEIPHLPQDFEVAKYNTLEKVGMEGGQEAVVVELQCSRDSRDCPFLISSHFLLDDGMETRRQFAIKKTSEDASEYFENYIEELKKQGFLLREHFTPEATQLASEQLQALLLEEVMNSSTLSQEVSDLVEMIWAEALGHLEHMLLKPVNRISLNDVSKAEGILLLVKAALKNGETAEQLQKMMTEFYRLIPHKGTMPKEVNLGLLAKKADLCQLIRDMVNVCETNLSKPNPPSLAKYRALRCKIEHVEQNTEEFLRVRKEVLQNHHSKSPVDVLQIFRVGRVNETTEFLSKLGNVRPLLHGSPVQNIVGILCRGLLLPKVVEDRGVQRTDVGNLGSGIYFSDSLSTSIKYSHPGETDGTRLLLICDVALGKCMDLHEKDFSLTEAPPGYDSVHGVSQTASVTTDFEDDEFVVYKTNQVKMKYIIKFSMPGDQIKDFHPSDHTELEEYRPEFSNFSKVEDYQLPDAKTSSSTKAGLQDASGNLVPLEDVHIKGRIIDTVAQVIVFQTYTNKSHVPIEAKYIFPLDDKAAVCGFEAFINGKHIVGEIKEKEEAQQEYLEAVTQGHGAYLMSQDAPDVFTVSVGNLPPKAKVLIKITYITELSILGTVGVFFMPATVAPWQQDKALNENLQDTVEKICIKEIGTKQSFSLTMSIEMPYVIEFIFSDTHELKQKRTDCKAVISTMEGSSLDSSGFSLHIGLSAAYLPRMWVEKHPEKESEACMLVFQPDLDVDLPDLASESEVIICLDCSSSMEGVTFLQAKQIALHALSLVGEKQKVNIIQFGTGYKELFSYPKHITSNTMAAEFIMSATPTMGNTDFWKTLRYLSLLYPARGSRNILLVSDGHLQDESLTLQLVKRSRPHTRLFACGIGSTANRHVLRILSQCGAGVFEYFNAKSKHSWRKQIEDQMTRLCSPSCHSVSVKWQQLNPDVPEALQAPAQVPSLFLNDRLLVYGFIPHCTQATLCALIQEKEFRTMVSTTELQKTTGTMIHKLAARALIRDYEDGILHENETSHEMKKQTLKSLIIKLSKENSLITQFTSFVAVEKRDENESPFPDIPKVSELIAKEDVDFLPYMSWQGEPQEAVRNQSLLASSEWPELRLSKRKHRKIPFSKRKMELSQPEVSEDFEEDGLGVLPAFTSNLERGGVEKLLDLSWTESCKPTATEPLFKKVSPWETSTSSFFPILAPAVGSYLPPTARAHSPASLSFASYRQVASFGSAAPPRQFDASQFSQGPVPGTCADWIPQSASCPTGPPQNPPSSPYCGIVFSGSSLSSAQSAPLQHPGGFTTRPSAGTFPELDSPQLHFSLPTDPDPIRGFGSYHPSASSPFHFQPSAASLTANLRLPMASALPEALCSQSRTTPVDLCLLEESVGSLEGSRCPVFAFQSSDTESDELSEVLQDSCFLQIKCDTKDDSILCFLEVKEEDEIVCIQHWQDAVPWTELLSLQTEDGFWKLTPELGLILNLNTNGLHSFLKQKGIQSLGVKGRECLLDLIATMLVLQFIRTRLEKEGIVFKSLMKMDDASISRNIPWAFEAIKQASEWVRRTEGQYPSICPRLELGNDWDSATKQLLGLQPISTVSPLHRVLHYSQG
# [6] = target: Protein mono-ADP-ribosyltransferase PARP10 (Homo sapiens, UniProt Q53GL7); assay: Binding affinity to PARP10 (unknown origin) assessed as apparent dissociation constant; details: read-out: Kd(app)
# [7] = target: Protein mono-ADP-ribosyltransferase PARP16 (Homo sapiens) (UniProt Q8N5Y8); assay: Binding affinity to PARP16 (unknown origin) assessed as apparent dissociation constant
# [8] = Plasma clearance in mouse; type: ADME, organism-based
# [9] = Plasma clearance in rat; type: ADME
# [10] = Plasma clearance in dog; type: ADME, Canis lupus familiaris
# [11] = Plasma clearance in monkey; type: ADME, Macaca mulatta; details: rhesus monkey
# [12] = Antitumor activity against patient derived explant HBCx-17 cells xenografted in mouse assessed as tumor regression administered daily at 0.03 mg/kg, po for 25 days relative to control; type: functional, Homo sapiens; details: time 25 day
# [13] = Antitumor activity against patient derived explant HBCx-17 cells xenografted in mouse assessed as tumor regression administered daily at 0.1 mg/kg, po for 25 days relative to control; type: functional, Homo sapiens; details: time 25 day
# [14] = Antitumor activity against patient derived explant HBCx-17 cells xenografted in mouse assessed as tumor regression administered daily at 10 mg/kg, po for 25 days relative to control; type: functional, Homo sapiens; details: time 25 day
# [15] = Antitumor activity against patient derived explant HBCx-17 cells xenografted in mouse assessed as tumor regression administered daily at 1 mg/kg, po for 25 days relative to control; type: functional, Homo sapiens; details: time 25 day
# [16] = Hematotoxicity in CD34+ hematopoietic stem/progenitor cells (unknown origin) assessed as reduction of cell viability treated for 5 days by cell-tire-Glo-2.0 luminescence based assay; type: toxicity, CD34-positive hematopoietic stem/progenitor cell; details: cd34-positive hematopoietic stem/progenitor cell, 120 h; DDE = dose-dependent effect; dose lower 1e-05 µM, dose upper 100 µM, time 5 day
# [17] = Hematotoxicity in CD34+ hematopoietic stem/progenitor cells (unknown origin) assessed as reduction of cell viability treated at 3 nM for 5 days by cell-tire-Glo-2.0 luminescence based assay; type: toxicity; details: cd34-positive hematopoietic stem/progenitor cell, 120 h, 0.003 µM, time 5 day
# [18] = Hematotoxicity in CD34+ hematopoietic stem/progenitor cells (unknown origin) assessed as remaining viable cells treated at 100 nM for 5 days by cell-tire-Glo-2.0 luminescence based assay relative to control; type: toxicity, CD34-positive hematopoietic stem/progenitor cell; details: time 5 day, read-out: Activity
# [19] = Unbound clearance in mouse; type: ADME, organism-based; details: in vivo
# [20] = Unbound clearance in rat; type: ADME; details: in vivo
# [21] = Unbound clearance in dog; type: ADME, Canis lupus familiaris; details: in vivo
# [22] = Unbound clearance in monkey; type: ADME, Macaca mulatta; details: rhesus monkey, in vivo
# [23] = Volume of distribution at steady state in mouse; type: ADME, organism-based; details: in vivo, read-out: Vdss
# [24] = Volume of distribution at steady state in rat; type: ADME; details: in vivo, read-out: Vdss
# [25] = Volume of distribution at steady state in dog; type: ADME, Canis lupus familiaris; details: in vivo, read-out: Vdss
# [26] = Volume of distribution at steady state in monkey; type: ADME, Macaca mulatta; details: rhesus monkey, in vivo; read-out: Vdss
# [27] = Half life in mouse; type: ADME, organism-based; details: in vivo
# [28] = Half life in rat; type: ADME; details: in vivo
# [29] = Half life in dog; type: ADME, Canis lupus familiaris; details: in vivo
# [30] = Half life in monkey; type: ADME, Macaca mulatta; details: rhesus monkey, in vivo
# [31] = Oral bioavailability in mouse; type: ADME, organism-based; details: in vivo
# [32] = Oral bioavailability in rat; type: ADME, organism-based; details: in vivo
# [33] = Oral bioavailability in dog; type: ADME, organism-based, Canis lupus familiaris; details: in vivo
# [34] = Oral bioavailability in monkey; type: ADME, organism-based, Macaca mulatta; details: rhesus monkey, in vivo
# [35] = target: T1, Protein mono-ADP-ribosyltransferase PARP8 (Homo sapiens) (UniProt Q8N3A8)
# T1 sequence (whole entry): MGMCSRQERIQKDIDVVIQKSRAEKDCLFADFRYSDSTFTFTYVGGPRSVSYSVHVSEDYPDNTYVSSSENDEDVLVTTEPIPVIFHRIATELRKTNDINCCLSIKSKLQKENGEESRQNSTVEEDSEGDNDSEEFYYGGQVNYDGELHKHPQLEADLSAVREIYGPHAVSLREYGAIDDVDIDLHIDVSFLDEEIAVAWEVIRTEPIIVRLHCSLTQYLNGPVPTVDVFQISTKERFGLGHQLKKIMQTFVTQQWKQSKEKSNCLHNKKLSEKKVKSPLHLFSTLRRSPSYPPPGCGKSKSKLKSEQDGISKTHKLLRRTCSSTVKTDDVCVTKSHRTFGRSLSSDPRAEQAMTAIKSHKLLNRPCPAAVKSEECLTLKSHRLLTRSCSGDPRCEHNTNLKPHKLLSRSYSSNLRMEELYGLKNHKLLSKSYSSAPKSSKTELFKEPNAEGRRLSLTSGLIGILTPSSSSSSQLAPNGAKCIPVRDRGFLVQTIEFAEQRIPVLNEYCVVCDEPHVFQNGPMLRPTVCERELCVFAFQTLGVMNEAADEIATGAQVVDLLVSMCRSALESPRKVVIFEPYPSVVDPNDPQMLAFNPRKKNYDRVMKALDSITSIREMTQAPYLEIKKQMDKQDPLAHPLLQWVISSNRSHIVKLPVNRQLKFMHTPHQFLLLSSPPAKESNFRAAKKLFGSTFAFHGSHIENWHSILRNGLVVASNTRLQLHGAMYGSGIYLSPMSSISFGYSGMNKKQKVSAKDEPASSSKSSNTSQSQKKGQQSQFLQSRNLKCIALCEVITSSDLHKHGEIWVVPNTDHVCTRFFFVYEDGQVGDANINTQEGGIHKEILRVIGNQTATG
# [36] = target: Protein mono-ADP-ribosyltransferase PARP9 (Homo sapiens, UniProt Q8IXQ6)
# [37] = target: Protein mono-ADP-ribosyltransferase PARP12 (Homo sapiens) (UniProt Q9H0J9)
# [38] = target: Protein mono-ADP-ribosyltransferase PARP14 (Homo sapiens) (UniProt Q460N5)
# Chain of Protein mono-ADP-ribosyltransferase PARP14 (Homo sapiens) (Q460N5 whole entry): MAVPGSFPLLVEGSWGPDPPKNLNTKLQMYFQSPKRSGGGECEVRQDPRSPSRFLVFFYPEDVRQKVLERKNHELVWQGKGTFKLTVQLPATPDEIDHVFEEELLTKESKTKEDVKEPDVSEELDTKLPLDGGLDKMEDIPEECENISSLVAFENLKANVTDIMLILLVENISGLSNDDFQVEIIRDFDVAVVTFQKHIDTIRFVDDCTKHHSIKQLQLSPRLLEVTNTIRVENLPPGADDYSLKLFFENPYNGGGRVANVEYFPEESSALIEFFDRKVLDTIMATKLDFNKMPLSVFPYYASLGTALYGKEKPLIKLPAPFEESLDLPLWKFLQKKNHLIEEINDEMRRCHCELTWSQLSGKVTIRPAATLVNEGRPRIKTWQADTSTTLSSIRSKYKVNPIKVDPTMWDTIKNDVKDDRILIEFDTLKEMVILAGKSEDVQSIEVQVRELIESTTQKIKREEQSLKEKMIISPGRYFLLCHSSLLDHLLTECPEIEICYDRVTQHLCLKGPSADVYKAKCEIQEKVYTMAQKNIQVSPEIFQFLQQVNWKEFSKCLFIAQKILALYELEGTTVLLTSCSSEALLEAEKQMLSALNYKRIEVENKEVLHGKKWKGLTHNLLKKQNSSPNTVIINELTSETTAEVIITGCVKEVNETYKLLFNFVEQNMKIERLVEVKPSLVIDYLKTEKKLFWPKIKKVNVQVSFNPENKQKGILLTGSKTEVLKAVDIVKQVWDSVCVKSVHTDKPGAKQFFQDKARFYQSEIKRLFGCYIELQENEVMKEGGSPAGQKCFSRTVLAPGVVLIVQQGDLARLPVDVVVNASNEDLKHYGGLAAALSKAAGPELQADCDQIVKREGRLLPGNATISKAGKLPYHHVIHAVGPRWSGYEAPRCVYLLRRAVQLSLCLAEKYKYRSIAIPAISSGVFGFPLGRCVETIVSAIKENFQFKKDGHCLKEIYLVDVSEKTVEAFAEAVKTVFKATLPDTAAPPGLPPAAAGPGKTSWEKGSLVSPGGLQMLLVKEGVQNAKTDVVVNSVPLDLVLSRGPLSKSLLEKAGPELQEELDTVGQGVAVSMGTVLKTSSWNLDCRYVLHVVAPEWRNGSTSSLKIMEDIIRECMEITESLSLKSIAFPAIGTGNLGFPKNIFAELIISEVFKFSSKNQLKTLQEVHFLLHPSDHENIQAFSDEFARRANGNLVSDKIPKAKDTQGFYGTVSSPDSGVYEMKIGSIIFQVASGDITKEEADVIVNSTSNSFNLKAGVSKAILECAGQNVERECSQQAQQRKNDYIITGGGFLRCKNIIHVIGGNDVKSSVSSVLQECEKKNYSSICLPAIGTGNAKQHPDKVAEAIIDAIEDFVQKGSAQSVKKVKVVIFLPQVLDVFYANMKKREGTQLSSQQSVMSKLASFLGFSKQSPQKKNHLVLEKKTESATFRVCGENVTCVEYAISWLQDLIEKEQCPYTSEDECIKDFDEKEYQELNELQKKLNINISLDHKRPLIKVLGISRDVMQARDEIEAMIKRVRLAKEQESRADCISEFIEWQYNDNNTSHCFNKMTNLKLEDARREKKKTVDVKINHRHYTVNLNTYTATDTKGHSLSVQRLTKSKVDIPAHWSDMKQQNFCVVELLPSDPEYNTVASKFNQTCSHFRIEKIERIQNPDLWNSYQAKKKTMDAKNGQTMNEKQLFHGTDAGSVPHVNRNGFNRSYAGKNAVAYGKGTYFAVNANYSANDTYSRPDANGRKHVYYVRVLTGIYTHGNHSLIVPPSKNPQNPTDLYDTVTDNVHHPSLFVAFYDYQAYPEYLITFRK
# [39] = physchem; details: buffer, pH 7.4
# [40] = in vitro; details: human, liver microsomes
# [41] = in vitro; details: rat, plasma
# [42] = in vitro; details: dog, plasma
# [43] = in vitro; details: rhesus monkey, plasma
# [44] = target: Poly [ADP-ribose] polymerase tankyrase-1 (Homo sapiens) (UniProt O95271); assay: Binding affinity to PARP5a (unknown origin) assessed as apparent dissociation constant
# Chain of Poly [ADP-ribose] polymerase tankyrase-1 (Homo sapiens) (O95271 whole entry): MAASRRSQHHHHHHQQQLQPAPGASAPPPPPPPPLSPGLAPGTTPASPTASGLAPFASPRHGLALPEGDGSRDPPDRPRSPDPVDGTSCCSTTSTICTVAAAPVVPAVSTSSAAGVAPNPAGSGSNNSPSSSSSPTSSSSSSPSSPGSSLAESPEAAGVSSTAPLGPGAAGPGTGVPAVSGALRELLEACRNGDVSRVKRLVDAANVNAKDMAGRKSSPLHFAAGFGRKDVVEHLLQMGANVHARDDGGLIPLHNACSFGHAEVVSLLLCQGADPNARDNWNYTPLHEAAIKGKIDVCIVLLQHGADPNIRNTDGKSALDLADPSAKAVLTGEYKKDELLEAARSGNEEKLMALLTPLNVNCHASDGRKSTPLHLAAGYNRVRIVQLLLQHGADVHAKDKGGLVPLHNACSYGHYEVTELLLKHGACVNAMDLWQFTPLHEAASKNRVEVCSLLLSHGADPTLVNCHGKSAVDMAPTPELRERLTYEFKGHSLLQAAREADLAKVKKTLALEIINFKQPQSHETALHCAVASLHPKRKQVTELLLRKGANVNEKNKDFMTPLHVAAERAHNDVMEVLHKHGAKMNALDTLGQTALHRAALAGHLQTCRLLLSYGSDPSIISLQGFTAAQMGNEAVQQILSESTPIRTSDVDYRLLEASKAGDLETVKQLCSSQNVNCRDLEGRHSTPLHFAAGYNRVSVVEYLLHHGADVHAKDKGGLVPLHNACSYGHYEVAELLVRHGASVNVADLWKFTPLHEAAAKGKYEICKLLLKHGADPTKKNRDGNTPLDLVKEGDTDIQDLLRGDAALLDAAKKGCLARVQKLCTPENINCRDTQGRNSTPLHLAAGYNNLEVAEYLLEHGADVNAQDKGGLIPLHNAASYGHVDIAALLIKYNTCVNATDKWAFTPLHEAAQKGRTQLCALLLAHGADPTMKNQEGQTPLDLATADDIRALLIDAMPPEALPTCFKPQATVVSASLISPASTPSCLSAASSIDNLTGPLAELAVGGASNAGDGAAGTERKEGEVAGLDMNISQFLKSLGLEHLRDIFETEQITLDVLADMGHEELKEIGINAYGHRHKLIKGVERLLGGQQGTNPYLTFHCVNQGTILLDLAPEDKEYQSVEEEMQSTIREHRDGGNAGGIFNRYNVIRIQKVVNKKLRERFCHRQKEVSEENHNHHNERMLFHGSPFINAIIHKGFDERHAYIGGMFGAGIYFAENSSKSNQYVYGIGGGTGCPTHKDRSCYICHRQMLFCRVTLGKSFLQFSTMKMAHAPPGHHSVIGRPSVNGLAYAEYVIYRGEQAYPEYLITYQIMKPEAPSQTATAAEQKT
structure (smiles),measurement,setting,value
CCc1cc2ncc(CN3CCN(c4ccc(C(=O)NC)nc4)CC3)cc2[nH]c1=O [SARUPARIB],IC50,[1],2 nM
same,solubility,[2],50 µM
same,hepatocyte CLint,[3],< 1 µL/min/1e6 cells
same,Kd(app),[4],Active
same,Kd(app),[5],Active
same,Kd,[6],> 10000 nM
same,Kd(app),[7],Active
same,clearance,[8],0.23 mL/min/kg
same,clearance,[9],1.1 mL/min/kg
same,clearance,[10],0.35 mL/min/kg
same,clearance,[11],0.84 mL/min/kg
same,Activity,[12],23%
same,Activity,[13],73%
same,Activity,[14],84%
same,Activity,[15],86%
same,Activity,[16],Dde
same,Activity,[17],Toxic
same,"viability at 120 h, 0.1 µM",[18],46%
same,CL free,[19],3.2 mL/min/kg
same,CL free,[20],34 mL/min/kg
same,CL free,[21],2.1 mL/min/kg
same,CL free,[22],20 mL/min/kg
same,Vd,[23],0.17 L/kg
same,Vd,[24],0.38 L/kg
same,Vd,[25],0.3 L/kg
same,Vd,[26],0.38 L/kg
same,half-life,[27],8 h
same,half-life,[28],4.6 h
same,half-life,[29],10 h
same,half-life,[30],7.1 h
same,bioavailability,[31],77%
same,bioavailability,[32],132%
same,bioavailability,[33],73%
same,bioavailability,[34],122%
same,Kd(app),[35],Active
same,Kd(app),[36],Active
same,Kd(app),[37],Active
same,Kd(app),[38],Active
same,logD,[39],1.9
same,microsomal CLint,[40],< 3 µL/min/mg
same,fraction unbound,[41],0.032
same,fraction unbound,[42],0.17
same,fraction unbound,[43],0.043
same,Kd(app),[44],Active

# — ChEMBL document CHEMBL5150005, “Discovery of 5-{4-[(7-Ethyl-6-oxo-5,6-dihydro-1,5-naphthyridin-3-yl)methyl]piperazin-1-yl}-N-methylpyridine-2-carboxamide (AZD5305): A PARP1-DNA Trapper with High Selectivity for PARP1 over PARP2 and Other PARPs” (J Med Chem, 2021)
